Test results as given in ChEMBL document CHEMBL1155389, “Selectively nonselective kinase inhibition: striking the right balance” (J Med Chem, 2010).

Assays:
[1] = target: Epidermal growth factor receptor (Homo sapiens, UniProt P00533)
[2] = Oral bioavailability in mouse; format: ADME, organism-based; conditions: in vivo
[3] = target: Insulin-like growth factor 1 receptor (Homo sapiens, UniProt P08069)
[4] = Inhibition of p38
[5] = target: Mitogen-activated protein kinase 10 (Homo sapiens, UniProt P53779); experiment: Inhibition of JNK3
Bcr/Abl fusion protein = Bcr/Abl fusion protein (Homo sapiens, UniProt P00519); format: protein assay
Bcr/Abl fusion protein, sequence (P00519 whole entry, the tested form may be a part): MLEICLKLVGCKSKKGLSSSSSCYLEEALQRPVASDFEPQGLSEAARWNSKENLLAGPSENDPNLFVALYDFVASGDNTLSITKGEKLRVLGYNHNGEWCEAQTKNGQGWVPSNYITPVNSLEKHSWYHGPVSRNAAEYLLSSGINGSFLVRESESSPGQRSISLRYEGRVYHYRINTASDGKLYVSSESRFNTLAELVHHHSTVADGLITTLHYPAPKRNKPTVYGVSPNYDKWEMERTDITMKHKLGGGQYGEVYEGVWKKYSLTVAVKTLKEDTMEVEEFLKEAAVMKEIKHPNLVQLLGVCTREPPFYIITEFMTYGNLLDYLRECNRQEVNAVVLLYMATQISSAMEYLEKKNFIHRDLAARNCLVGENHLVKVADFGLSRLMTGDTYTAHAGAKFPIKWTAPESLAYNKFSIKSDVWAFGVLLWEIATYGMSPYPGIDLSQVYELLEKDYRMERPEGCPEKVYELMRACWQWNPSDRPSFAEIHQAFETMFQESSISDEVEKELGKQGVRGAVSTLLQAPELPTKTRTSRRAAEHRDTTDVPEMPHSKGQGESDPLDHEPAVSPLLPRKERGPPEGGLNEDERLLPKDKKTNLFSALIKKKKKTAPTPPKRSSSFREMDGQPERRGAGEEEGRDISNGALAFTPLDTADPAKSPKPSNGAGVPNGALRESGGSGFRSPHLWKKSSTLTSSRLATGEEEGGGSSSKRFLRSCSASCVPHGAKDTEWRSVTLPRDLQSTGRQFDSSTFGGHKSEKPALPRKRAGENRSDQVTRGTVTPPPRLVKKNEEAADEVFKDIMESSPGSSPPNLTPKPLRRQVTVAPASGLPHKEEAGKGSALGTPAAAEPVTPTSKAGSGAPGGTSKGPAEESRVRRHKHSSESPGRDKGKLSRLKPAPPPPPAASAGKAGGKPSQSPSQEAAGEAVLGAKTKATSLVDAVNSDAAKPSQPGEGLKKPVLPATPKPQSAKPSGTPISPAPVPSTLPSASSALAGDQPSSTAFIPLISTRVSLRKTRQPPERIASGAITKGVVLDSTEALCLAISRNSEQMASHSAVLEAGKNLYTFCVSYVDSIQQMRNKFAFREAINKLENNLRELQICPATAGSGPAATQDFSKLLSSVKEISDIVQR
Bcr/Abl fusion protein, sequence (P11274 whole entry, further chain, the tested form may be a part): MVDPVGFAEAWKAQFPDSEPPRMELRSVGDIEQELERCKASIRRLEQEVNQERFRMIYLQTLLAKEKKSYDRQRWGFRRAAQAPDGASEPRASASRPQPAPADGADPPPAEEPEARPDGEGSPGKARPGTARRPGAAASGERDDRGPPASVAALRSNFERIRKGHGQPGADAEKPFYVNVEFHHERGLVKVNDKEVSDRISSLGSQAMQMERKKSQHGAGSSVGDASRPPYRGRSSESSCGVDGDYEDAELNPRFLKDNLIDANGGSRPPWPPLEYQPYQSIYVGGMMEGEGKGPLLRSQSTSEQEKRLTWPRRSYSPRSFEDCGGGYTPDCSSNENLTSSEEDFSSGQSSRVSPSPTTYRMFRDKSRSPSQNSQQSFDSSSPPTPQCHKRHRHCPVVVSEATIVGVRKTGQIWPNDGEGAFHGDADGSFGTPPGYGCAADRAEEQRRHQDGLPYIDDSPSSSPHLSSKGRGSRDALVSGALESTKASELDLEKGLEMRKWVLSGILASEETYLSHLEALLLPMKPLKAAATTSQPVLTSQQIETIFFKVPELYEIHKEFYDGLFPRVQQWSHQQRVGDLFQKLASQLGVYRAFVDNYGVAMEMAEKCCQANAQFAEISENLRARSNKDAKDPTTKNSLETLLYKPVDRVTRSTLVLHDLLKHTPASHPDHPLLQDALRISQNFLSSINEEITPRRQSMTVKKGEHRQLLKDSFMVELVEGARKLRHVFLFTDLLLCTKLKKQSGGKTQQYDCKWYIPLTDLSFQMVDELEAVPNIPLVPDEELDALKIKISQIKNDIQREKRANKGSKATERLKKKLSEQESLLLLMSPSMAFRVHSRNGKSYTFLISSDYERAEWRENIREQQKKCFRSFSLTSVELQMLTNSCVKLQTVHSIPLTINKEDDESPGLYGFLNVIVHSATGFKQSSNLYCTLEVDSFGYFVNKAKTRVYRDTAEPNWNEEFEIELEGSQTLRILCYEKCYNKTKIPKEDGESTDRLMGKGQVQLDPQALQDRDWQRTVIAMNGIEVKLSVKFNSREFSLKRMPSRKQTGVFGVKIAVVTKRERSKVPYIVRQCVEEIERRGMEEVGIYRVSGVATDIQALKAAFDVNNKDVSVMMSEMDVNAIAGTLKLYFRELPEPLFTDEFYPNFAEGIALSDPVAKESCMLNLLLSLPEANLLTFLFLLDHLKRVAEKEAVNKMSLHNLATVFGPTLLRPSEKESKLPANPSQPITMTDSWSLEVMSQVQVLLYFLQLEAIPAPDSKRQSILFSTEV
Description: Inhibition of wild type Bcr-Abl

[6] = target: Tyrosine-protein kinase ABL1 (Homo sapiens, UniProt P00519)
Tyrosine-protein kinase ABL1, sequence (P00519 whole entry): as the sequence (P00519 whole entry, the tested form may be a part) above
Description: Inhibition of wild type Abl

[7] = target: Cyclin-dependent kinase 1 (Homo sapiens, UniProt P06493); experiment: Inhibition of CDK1
[8] = target: Casein kinase I isoform alpha (Homo sapiens, UniProt P48729); experiment: Inhibition of CK1
[9] = target: Glycogen synthase kinase-3 beta (Homo sapiens, UniProt P49841); experiment: Inhibition of GSK3-beta
[10] = Inhibition of PDGFR
[11] = Inhibition of HDAC
[12] = target: Cyclin-dependent kinase 5 (Homo sapiens, UniProt Q00535); experiment: Inhibition of CDK5
[13] = target: Dual specificity tyrosine-phosphorylation-regulated kinase 1A (Homo sapiens, UniProt Q13627); experiment: Inhibition of DYRK1A
[14] = Inhibition of GSK3
[15] = target: Receptor tyrosine-protein kinase erbB-2 (Homo sapiens, UniProt P04626)
[16] = target: Voltage-gated inwardly rectifying potassium channel KCNH2 (Homo sapiens, UniProt Q12809); experiment: Inhibition of ERG
[17] = target: Proto-oncogene tyrosine-protein kinase Src (Homo sapiens, UniProt P12931)
[18] = target: Nitric oxide synthase, inducible (Homo sapiens, UniProt P35228); experiment: Inhibition of iNOS
[19] = target: RAC-alpha serine/threonine-protein kinase (Homo sapiens, UniProt P31749)
[20] = target: Mast/stem cell growth factor receptor Kit (Homo sapiens, UniProt P10721)
[21] = target: Vascular endothelial growth factor receptor 2 (Homo sapiens, UniProt P35968)
Dihydrofolate reductase = target: T1, Dihydrofolate reductase (Homo sapiens, UniProt P00374); experiment: Inhibition of DHFR
T1 sequence (P00374 whole entry): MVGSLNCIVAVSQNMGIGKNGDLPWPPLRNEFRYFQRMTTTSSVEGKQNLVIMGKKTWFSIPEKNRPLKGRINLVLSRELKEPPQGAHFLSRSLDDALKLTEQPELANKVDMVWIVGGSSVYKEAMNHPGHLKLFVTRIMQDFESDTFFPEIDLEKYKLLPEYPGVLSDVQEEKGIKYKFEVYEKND

Insulin-like growth factor 1 receptor, sequence (P08069 31-736 limits assumed): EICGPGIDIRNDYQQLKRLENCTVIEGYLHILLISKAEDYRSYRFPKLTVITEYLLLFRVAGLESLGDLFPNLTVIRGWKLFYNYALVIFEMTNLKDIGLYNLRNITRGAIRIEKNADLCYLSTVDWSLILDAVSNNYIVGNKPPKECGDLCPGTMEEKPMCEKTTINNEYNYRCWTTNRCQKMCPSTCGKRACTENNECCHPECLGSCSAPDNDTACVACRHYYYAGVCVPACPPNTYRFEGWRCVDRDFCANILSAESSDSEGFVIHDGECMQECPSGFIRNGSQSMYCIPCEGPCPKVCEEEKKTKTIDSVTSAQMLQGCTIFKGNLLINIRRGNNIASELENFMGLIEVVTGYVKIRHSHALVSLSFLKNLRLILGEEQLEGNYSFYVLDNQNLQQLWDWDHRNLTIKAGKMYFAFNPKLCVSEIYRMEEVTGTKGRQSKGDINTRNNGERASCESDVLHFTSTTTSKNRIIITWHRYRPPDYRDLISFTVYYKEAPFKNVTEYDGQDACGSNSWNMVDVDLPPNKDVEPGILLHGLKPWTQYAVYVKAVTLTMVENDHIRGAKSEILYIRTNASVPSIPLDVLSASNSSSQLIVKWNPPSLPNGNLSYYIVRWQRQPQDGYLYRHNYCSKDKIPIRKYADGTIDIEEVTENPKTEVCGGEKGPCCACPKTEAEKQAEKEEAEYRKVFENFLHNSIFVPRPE
Insulin-like growth factor 1 receptor, sequence (P08069 741-1367 limits assumed): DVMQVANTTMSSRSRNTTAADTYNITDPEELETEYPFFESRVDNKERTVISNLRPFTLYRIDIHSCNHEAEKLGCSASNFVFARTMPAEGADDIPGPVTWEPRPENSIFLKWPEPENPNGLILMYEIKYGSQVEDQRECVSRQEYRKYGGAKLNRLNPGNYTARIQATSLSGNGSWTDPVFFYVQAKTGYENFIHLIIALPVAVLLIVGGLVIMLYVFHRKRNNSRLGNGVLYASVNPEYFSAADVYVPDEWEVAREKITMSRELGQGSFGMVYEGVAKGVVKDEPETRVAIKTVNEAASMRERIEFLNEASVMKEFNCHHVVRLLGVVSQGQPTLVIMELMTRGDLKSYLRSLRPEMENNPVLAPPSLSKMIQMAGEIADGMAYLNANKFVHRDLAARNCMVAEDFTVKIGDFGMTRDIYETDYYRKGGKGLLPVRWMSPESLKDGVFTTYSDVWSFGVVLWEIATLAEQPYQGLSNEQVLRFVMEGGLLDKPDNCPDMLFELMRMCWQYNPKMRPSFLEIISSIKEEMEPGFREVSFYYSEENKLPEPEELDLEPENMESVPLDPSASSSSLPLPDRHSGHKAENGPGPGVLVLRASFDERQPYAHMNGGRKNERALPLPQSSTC
Epidermal growth factor receptor, sequence (P00533 whole entry): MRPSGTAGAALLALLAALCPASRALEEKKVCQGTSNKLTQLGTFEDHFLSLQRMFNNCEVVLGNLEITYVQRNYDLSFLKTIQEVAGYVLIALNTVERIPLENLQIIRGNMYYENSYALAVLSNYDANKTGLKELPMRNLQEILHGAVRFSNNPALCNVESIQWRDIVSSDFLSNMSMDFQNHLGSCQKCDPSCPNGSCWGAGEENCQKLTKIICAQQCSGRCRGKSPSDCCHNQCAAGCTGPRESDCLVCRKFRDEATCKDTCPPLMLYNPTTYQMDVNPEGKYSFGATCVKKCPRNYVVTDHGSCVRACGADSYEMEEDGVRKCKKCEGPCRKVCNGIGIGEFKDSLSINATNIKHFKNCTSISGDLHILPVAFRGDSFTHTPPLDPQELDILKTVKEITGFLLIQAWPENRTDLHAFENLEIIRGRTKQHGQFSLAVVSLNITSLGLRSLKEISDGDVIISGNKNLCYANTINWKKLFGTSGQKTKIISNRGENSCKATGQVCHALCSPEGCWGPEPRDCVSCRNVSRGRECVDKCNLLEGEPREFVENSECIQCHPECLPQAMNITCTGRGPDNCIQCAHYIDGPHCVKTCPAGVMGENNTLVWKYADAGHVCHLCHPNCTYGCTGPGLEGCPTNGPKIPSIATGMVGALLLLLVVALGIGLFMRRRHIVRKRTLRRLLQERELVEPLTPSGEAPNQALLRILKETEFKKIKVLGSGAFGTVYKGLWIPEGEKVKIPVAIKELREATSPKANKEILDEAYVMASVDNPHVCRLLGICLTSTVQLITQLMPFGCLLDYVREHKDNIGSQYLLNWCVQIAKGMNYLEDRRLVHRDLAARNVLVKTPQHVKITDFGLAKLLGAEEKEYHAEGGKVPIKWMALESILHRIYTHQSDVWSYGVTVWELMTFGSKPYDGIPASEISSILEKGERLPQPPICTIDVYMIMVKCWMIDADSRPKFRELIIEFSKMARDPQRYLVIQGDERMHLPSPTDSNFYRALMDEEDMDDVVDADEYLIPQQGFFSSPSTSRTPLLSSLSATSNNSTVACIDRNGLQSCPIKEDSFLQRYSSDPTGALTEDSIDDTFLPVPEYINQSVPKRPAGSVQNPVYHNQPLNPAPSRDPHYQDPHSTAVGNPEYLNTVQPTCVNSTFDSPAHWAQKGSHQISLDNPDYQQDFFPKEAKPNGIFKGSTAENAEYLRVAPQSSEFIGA

Structure (SMILES): COc1ccccc1Cc1nc2ccc(-c3nn([C@H]4CC[C@H](C5CCN(C)CC5)CC4)c4ncnc(N)c34)cc2[nH]1
- IC50 [1]: 0.058 µM
- bioavailability [2]: 12%
- IC50 [3]: 0.081 µM

Structure (SMILES): c1ccc(-c2noc(CN3CCCCC3)c2-c2ccnc(NC3CCCCC3)n2)cc1
- IC50 [4]: 0.002 µM
- IC50 [5]: 0.026 µM

Structure (SMILES): Cc1cn(-c2cc(NC(=O)c3ccc(C)c(/C=C/N4CNc5c(NC6CC6)ncnc54)c3)cc(C(F)(F)F)c2)cn1
- IC50 (Bcr/Abl fusion protein): 0.008 µM
- IC50 [6]: 0.025 µM

Structure (SMILES): CCC(CO)Nc1nc(Nc2cccc(-c3ccccn3)c2)c2ncn(C(C)C)c2n1 (stereo unspecified)
- IC50 [7]: 0.22 µM
- IC50 [8]: 0.014 µM
- IC50 [9]: 4.1 µM

Structure (SMILES): Cc1cn(-c2cc(NC(=O)c3ccc(C)c(Nc4nccc(-c5cccnc5)n4)c3)cc(C(F)(F)F)c2)cn1 [NILOTINIB]
- IC50 [10]: 0.025 µM

Structure (SMILES): Cc1ccc(NC(=O)c2ccc(/C=C/C(=O)NO)cc2)cc1Nc1nc(-c2cccnc2)cs1
- IC50 (Bcr/Abl fusion protein): 2.7 µM
- IC50 [11]: 0.08 µM

Structure (SMILES): N#Cc1c(N)cc2[nH]nc(N)c2c1-c1ccccc1
- IC50 [12]: 11 µM
- IC50 [13]: 0.41 µM
- IC50 [14]: 15 µM

Structure (SMILES): C#Cc1cccc(Nc2ncnc3cc(OC)c(OCCCCCCC(=O)NO)cc23)c1 [CUDC-101]
- IC50 [11]: 0.0044 µM

Structure (SMILES): COCCCN1CCC([C@H]2CC[C@H](n3nc(-c4ccc5nc(Cc6ccccc6Cl)[nH]c5c4)c4c(N)ncnc43)CC2)CC1
- IC50 [1]: 0.058 µM
- IC50 [15]: 0.054 µM
- IC50 [3]: 0.081 µM

Structure (SMILES): Nc1ncnc2c1c(-c1cnc3[nH]ccc3c1)nn2C1CCCC1
- IC50 [10]: 0.002 µM

Structure (SMILES): c1ccc(-c2cc3c(ccn4cnnc34)nc2-c2ccc(CN3CCC(c4nnc(-c5ccccn5)[nH]4)CC3)cc2)cc1
- IC50 [16]: > 10 µM

Structure (SMILES): Cc1ccc(NC(=O)c2ccc(CN3CCN(C)CC3)cc2)cc1Nc1nccc(-c2cccnc2)n1 [IMATINIB]
- IC50 [10]: 0.039 µM
- IC50 [11]: > 0.1 µM

Structure (SMILES): Cc1cc2c(Nc3ccc4nc(N)sc4c3)c(C#N)cnc2cc1OCCN1CCCCC1
- IC50 [17]: 0.015 µM
- IC50 [18]: 313 µM

Structure (SMILES): Cn1nnnc1-c1cnc(-c2ccc(CN3CCC(n4c(=O)[nH]c5ccccc54)CC3)cc2)c(-c2ccccc2)c1
- IC50 [19]: 0.273 µM

Structure (SMILES): Cc1ccc(-c2ccnc(Nc3cc(NC(=O)c4ccc(CN5CCN(C)CC5)cc4)ccc3C)n2)cn1
- IC50 (Bcr/Abl fusion protein): 11 µM
- IC50 [20]: 0.043 µM

Structure (SMILES): C/C(=C/c1coc2nc(N)nc(N)c12)c1cccc2ccccc12
- IC50 [21]: 2 µM
- IC50 (Dihydrofolate reductase): 10 µM
